Test results as given in patent US20170020909A1, “METHODS OF TREATING GLAUCOMA USING AMP-ACTIVATED PROTEIN KINASE (AMPK) ACTIVATORS” (Massachusetts Eye and Ear Infirmary, priority 2014, published 2017).

Tested on: Acetyl-CoA carboxylase (ACC)
Experiment: Time course immunoblot of p-ACC/total ACC in primary human TM cell lysates
Format: cell-based
Conditions: 0.5 mM AICAR, human TM cells
Experimental: Primary human trabecular meshwork (TM) cells were isolated, in accordance with the Declaration of Helsinki, and maintained in culture as described previously.^63 Independent primary human TM cell lines were generated from donors ranging in age from 35 to 72 years and no known history of ocular disease. Cell cultures were maintained, unless otherwise stated, in Dulbecco's modified eagle medium (Life Technologies, Grand Island, N.Y.) containing 20% fetal bovine serum, 1% L-glutamine (2 mM), and gentamicin (0.1 mg/ml) at 37° C. in a 10% CO2 atmosphere. Only TM cells from third through fifth passage were used. […]
At the conclusion of each experiment for matricellular and ECM protein detection, conditioned media (CM) from TM cell cultures was harvested and centrifuged at 5000 rpm for 10 minutes at 4° C. The supernatant was then concentrated (Amicon Ultra-4 Filter Unit, 10 kDa; Millipore, Milford, Mass.), and protein content quantified using the DC Protein Assay kit adhering to manufacturer's protocols (Bio-Rad, Hercules, Calif.). […] Samples were then centrifuged at 14,000 rpm for 15 minutes at 4° C. and protein content quantified. […] The membranes were then washed three times with 1×TBS-T, scanned, and integrated band intensities were calculated using an infrared imaging system (Odyssey; Li-Cor, Lincoln, Nebr.). […]

NC(=O)c1ncn([C@@H]2O[C@H](CO)[C@@H](O)[C@H]2O)c1N [AICAR, 5-Aminoimidazole-4-carboxamide riboside]
peak increase of phospho-total ACC ratio (at 6 hours): 6.6 fold | change of phospho-total ACC ratio (within 15 minutes): increased by a statistically significant degree
